Source: patent US5208243A, “5-isoquinolinesulfonamides” (Adir et Compagnie, priority 1991, dated 1993)
Where a name gives a salt, the structure may show the parent alone.

Tests used:
[1] = tested on: rabbit aorta; test: Contraction of rabbit aorta induced by noradrenaline in a normal physiological medium; parameters: species or system New Zealand rabbit; conditions: Oryctolagus cuniculus, noradrenaline 10^-6 M, read-out: IC50, noradrenaline stimulus
Experimental: (§1) Studies are carried out on rings, 3 mm in length, […] The vascular rings are immersed in a normal physiological solution or in a physiological solution lacking calcium (+0.2 mM of the chelating agent EGTA), which is thermostatically regulated at 37° C. and aerated with a 95% O2 +5% CO2 mixture. The rings are linked to a STATHAM tension sensor (UC2-GOULD). The optimal tension for each vessel is applied and a stabilization period of 90 min is observed for the preparations. a) Antivasoconstrictive activity of the compounds of the invention in a physiological medium.

[2] = tested on: rabbit aorta; test: Contraction of rabbit aorta induced by angiotensin II in a medium without calcium; parameters: species or system New Zealand rabbit; conditions: Oryctolagus cuniculus, 10^-5 M, medium lacking calcium
Experimental: (§2) Studies are carried out on rings, 3 mm in length, […] The vascular rings are immersed in a normal physiological solution or in a physiological solution lacking calcium (+0.2 mM of the chelating agent EGTA), which is thermostatically regulated at 37° C. and aerated with a 95% O2 +5% CO2 mixture. The rings are linked to a STATHAM tension sensor (UC2-GOULD). The optimal tension for each vessel is applied and a stabilization period of 90 min is observed for the preparations. b) Antivasoconstrictive activity of the compounds of the invention in a medium without calcium.

[3] = tested on: rabbit aorta; test: Contraction of rabbit aorta induced by phorbol ester in a normal physiological medium; parameters: species or system New Zealand rabbit; conditions: Oryctolagus cuniculus, TPA 10^-5 M, read-out: IC50, phorbol ester stimulus
Experimental: as §1

[4] = tested on: rabbit aorta; test: Contraction of rabbit aorta induced by phorbol ester in a medium without calcium; parameters: species or system New Zealand rabbit; conditions: Oryctolagus cuniculus, 10^-5 M, medium lacking calcium
Experimental: as §2

[5] = tested on: rat aortas; test: Contraction of rat aortas induced by potassium depolarization (hyperpotassium medium); parameters: species or system WISTAR rat; conditions: read-out: IC50 (concentration inhibiting by 50% the contraction of rat aortas induced by potassium depolarization)
Description: The rings are linked to a STATHAM tension sensor (UC2-GOULD).

[6] = tested on: rabbit aortas; test: Contraction of rabbit aortas induced by noradrenaline in a medium without calcium; parameters: species or system New Zealand rabbit; conditions: Oryctolagus cuniculus, 0.5 h; compound 10^-6 M, rabbit aorta, incubated 30 minutes
Experimental: as §2

[7] = tested on: Rabbit iliac artery; test: Contraction of rabbit iliac artery induced by caffeine in a medium without calcium; parameters: species or system New Zealand rabbit; conditions: Oryctolagus cuniculus, 10^-5 M, medium lacking calcium
Experimental: as §2

[8] = tested on: rabbit mesenteric artery; test: Contraction of rabbit mesenteric artery induced by electrical stimulation; parameters: species or system New Zealand rabbit; conditions: Oryctolagus cuniculus, normal physiological medium
Experimental: as §1

[9] = tested on: rabbit aorta; test: Contraction of rabbit aorta induced by endothelin in a normal physiological medium; parameters: species or system New Zealand rabbit; conditions: Oryctolagus cuniculus, read-out: IC50, endothelin stimulus
Experimental: as §1

[10] = tested on: pig coronary artery; test: Vascular contraction of pig coronary artery induced by acetylcholine; conditions: Sus scrofa, 10^-5 M, preincubated 15 minutes
Experimental: Studies are carried out on rings, 3 mm in length, - or of coronary arteries from pigs anesthetized with nesdonal (8 mg/kg intravenously). The vascular rings are immersed in a normal physiological solution or in a physiological solution lacking calcium (+0.2 mM of the chelating agent EGTA), which is thermostatically regulated at 37° C. and aerated with a 95% O2 +5% CO2 mixture. The rings are linked to a STATHAM tension sensor (UC2-GOULD). The optimal tension for each vessel is applied and a stabilization period of 90 min is observed for the preparations. a) Antivasoconstrictive activity of the compounds of the invention in a physiological medium.

[11] = tested on: smooth muscle cells of the aorta; test: Proliferation rate after endothelial denudation of the aorta (3H-thymidine incorporation); type: in vivo, WISTAR rat; conditions: 10 mg/kg orally, daily
Experimental: D/ Effect of the compounds of the invention on the proliferation rate after endothelial denudation. […] After pretreatment for 6 days (J6), denudation of the aortic endothelium of the animals is performed according to the following method: After anesthetizing the animal with methohexital (Brietal, 60 mg/kg intraperitoneally), an embolectomy probe (Fogarty 2F) is introduced into the aorta through the left carotid. Aortic deendothelialization is achieved by three successive passages of the probe. Three days after the endothelial denudation (J9), the rats are sacrificed and the aorta is removed, incubated in a physiological solution for 1 hour at 37° C., and then transferred into a ^3 H-thymidine-enriched Krebs- Henseleit solution (specific activity: […]) for 1 hour at 37° C. This is followed by a one-hour post-incubation in a Krebs-Henseleit solution lacking ^3 H-thymidine. After washing in a Tris-EDTA buffer, the proliferation rate is calculated from the incorporation of 3H-thymidine. [drawing 17]

[12] = tested on: guinea pig left auricle; test: Ouabain intoxication of guinea pig left auricle; conditions: compound 10^-6 M
[13] = tested on: isolated heart; test: Isolated heart subjected to an ischemia-reperfusion sequence; parameters: species or system WISTAR rat; conditions: Rattus norvegicus, concentration of 810^-7 M (so in the source)
Experimental: b) Protective effect of the compounds of the invention on an isolated heart subjected to an ischemia-reperfusion sequence.
The heart is removed from WISTAR rats (325-375 g). The heart is rapidly perfused according to the technique of LANGENDORFF at a constant pressure of 101.310^2 Pa and electrically stimulated at 5 Hz.
The heart is subjected to a 30 min ischemia (produced by complete stoppage of the perfusion) followed by a 60 min reperfusion. The test compounds are incubated for 15 min before the ischemia.
Isovolumetric contractions are recorded by means of a polyethylene ballonet linked to a pressure sensor (P23-GOULD) introduced into the left ventricle and inflated so as to obtain a diastolic pressure of between 6.710^2 and 13.310^2 Pa.

[14] = tested on: rabbit aorta; test: Contraction of rabbit aorta induced by endothelin in a medium without calcium; parameters: species or system New Zealand rabbit; conditions: Oryctolagus cuniculus, 10^-5 M, medium lacking calcium
Experimental: as §2

[15] = tested on: rabbit aorta; test: Vascular contraction of rabbit aorta induced by PDGF; parameters: species or system New Zealand rabbit; conditions: Oryctolagus cuniculus, 10^-5 M, preincubated 15 minutes
Experimental: as §1

[16] = tested on: guinea pig left auricle; test: Veratridine intoxication of guinea pig left auricle; conditions: compound 10^-5 M
Experimental: a) Effect of the compounds of the invention on the intoxication of guinea pig left auricle.
The left auricles are removed from guinea pigs (350-450 g) anesthetized with sodium pentobarbital (30 mg/kg). The auricles are attached to a STATHAM tension sensor (UC2-GOULD) and the initial tension applied is 0.5 grams.
The auricles are electrically stimulated at 1 Hz by means of platinum electrodes. The intoxications are produced either by the addition of ouabain (10^-6 M) or by the addition of veratridine (10^-5 M). The test compounds are added 15 minutes before adding the toxic agent.

CN(C1CCN(CCCCOc2ccc(F)cc2)CC1)S(=O)(=O)c1cccc2cnccc12 [Example 1, N-Methyl-N-{1-[4-(pfluorophenoxy)butyl]-4-piperidyl}-5-isoquinolinesulfonamide fumarate]
IC50 [1]: 1400 nM
inhibition at 10 µM [2]: 40%
IC50 [3]: 300000 nM
inhibition at 10 µM [4]: 66%
IC50 [5]: 850 nM
inhibition at 1 µM [6]: 61%
inhibition at 10 µM [7]: 30%
IC50 [8]: 400 nM
IC50 [9]: 8100 nM
inhibition at 10 µM [10]: 61%
reduction of the proliferation of smooth muscle cells [11]: 40%
% contraction ([12]; 10 min): 192 ± 29%
Contracture (%) ([12]; 15 min): 0%
% contraction ([12]; 30 min): 187.5 ± 30%
Contracture (%) ([12]; 30 min): 1.9 ± 1.9%
% contraction ([12]; 60 min): 148.3 ± 33%
Contracture (%) ([12]; 60 min): 18 ± 7%
inhibition at 0.8 µM ([13]; 0.5 h, read-out: reduction of the contracture developed after 30 minutes of ischemia, relative to control): 47%
activation at 0.8 µM ([13]; 1 h, end of 60 minutes of reperfusion, read-out: improvement of the functional recuperation of the hearts relative to control): 55%
inhibition at 10 µM [14]: 42%
inhibition at 10 µM [15]: 20%
% contraction ([16]; 5 min): 158 ± 11%
% contraction ([16]; 15 min): 60.5 ± 13%
Contracture (%) ([16]; 15 min): 23.5 ± 6.2%
Contracture (%) ([16]; 30 min): 52.2 ± 4.7%
% contraction ([16]; 60 min): 20.5 ± 4.6%
Contracture (%) ([16]; 60 min): 60.7 ± 4.4%
